# Source: ChEMBL document CHEMBL1811754, “Sesquiterpene and xanthone derivatives from the sea fan-derived fungus Aspergillus sydowii PSU-F154” (J Nat Prod, 2011)
# Active and inactive are the calls of the source. The rule behind the calls is not given here.
# System: Radical scavenging activity
# Assay: Antioxidant activity assessed as DPPH radical scavenging activity after 30 mins by spectrophotometry
# Assay type: functional
IC50 [µM],SMILES,Activity
17,COC(=O)[C@@H]1c2c(oc3cc(CO)cc(O)c3c2=O)C=C[C@H]1O,–
–,COC(=O)[C@@]1(O)c2c(oc3cc(C)cc(O)c3c2=O)CC[C@H]1O,inactive
–,COC(=O)c1cccc2oc3cc(C)cc(O)c3c(=O)c12,inactive
–,CO[C@@](C)(CCCC(C)C)c1ccc(C(=O)O)cc1O,inactive
–,COC(=O)c1c(O)ccc2oc3cc(CO)cc(O)c3c(=O)c12,inactive
–,O=C1N[C@@H](Cc2c[nH]c3ccccc23)C(=O)N[C@H]1Cc1ccccc1,inactive
–,COC(=O)c1cccc2oc3cc(CO)cc(O)c3c(=O)c12,inactive
–,Cc1c(CCC(C)C)oc2cc(C(=O)O)ccc12,inactive
–,C/C(=C\CCC(C)C)c1ccc(CO)cc1O,inactive
